Measurements published in publication PMC3387161, “Small Molecules Targeted to a Non-Catalytic “RVxF” Binding Site of Protein Phosphatase-1 Inhibit HIV-1” (PLoS ONE, 2012).

Experiments:
[1] = target: T1, recombinant PP1α (Oryctolagus cuniculus, UniProt P62139); test: Malachite green dephosphorylation of generic KT(pT)IRR peptide by PP1α; format: biochemical; details: 1H4 300 µM, KT(pT)IRR 3 µM; control 1.4
T1 construct: purchased New England Biolabs, Ipswich, MA
Method: To determine whether 1H4 has an effect on the enzymatic activity of PP1, we used recombinant PP1α and a generic substrate, phosphorylated KT(pT)IRR peptide which is recognized equally well by PP1 and PP2A [13]. The KT(pT)IRR peptide (3 µM) was efficiently dephosphorylated by PP1α (Fig. 6A, V0 = 1.4 µM·min^−1). […] We further investigated the effect of 1H4 on PP1 enzymatic activity by analyzing the initial velocity versus KT(pT)IRR peptide substrate concentration plots in the absence and presence of 1H4 that were approximated by Michaelis-Menten equation (Fig. 6B) and also visualized in Lineweaver-Burk representation (Fig. 6C).
Figure 6 1H4 has no effect on PP1 enzymatic activity. […] The amount of released phosphate was quantified by the absorbance and phosphate concentration was recalculated using standards. Initial velocity was calculated by linear regression in Prism. […] The amount of released phosphate was quantified with malachite green. The VMAX and Km were calculated by non-linear regression analysis for Michaelis-Menten equation in Prism. […]
Inhibition data were analyzed using GraphPad Prism 4 software (GraphPad Software, La Jolla, CA). The IC50 values were determined from a sigmoidal dose-response (variable slope) curve using four parameter logistic equation Y = Bottom+(Top-Bottom)/([…]). […]

[2] = target: PP1 association with Tat, NIPP1 and PNUTS (Homo sapiens, UniProt P62136); format: cell-based; details: Tat-transfected 293T cells, LC-MS peak amplitude
Sequence of PP1 association with Tat, NIPP1 and PNUTS (P62136 2-330): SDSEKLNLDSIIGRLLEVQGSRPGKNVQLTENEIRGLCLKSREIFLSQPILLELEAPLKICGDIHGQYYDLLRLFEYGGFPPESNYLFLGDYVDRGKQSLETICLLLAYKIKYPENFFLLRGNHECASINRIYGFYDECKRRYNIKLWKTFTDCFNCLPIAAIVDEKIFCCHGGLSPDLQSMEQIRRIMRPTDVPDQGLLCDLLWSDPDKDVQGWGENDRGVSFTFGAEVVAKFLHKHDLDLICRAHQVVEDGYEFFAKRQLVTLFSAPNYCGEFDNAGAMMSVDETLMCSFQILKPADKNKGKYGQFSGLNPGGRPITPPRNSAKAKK

T1 sequence (P62139 whole entry): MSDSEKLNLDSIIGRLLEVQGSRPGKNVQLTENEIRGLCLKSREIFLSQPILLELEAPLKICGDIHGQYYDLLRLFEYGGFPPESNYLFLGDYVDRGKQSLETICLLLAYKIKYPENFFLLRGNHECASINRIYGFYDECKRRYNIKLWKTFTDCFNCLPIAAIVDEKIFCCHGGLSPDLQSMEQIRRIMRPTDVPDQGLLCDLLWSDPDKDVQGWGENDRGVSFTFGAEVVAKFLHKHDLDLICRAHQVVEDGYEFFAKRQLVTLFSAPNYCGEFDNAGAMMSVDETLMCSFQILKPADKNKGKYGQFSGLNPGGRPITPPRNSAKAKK

## COCCNC(=O)COC(=O)c1c2c(nc3ccccc13)/C(=C/c1ccc(O)cc1)CCC2 [1H4]
[1]
  V0 of KT(pT)IRR peptide dephosphorylation by PP1α in presence of compound: 1.3 µM·min^-1
[2]
  Interaction of PP1 with PNUTS and NIPP1: without any effect on the interaction of PP1 with PNUTS or NIPP1
  Tat association with PP1 (microcystin precipitation): Tat association was reduced
